# In US20230374034A1, “NOVEL BICYCLIC COMPOUNDS” (PRISM BIOLAB CO., LTD., priority 2020, published 2023):
# Read-outs that look alike come from different tables or passages of the source.
# Test system: NICD (Notch intracellular domain) CSL-bla reporter in HeLa cells
# Experiment: Notch assay (CellSensor T-REx NICD CSL-bla HeLa beta-lactamase reporter; Method 1 / Method 2)
# Format: cell-based
# Details: Homo sapiens, 10 μM compound, read-out: inhibiton (%) at 10 μM
# Source text: We used the CellSensor T-REx™ NICD CSL-bla HeLa cell line, which was engineered by lentiviral transduction of HeLa cells with a Notch response element driving beta-lactamase reporter gene expression (CSL-bla) along with DOX (doxycycline)-inducible NICD (Notch intracellular domain) constructs. Addition of DOX to these cells allows for regulated NICD transcription factor expression and subsequent beta-lactamase expression.
# Specifically, the following protocol was used.
# NOTCH ASSAY PROTOCOL (Method 2)
# • 1. Add 40 nL/well of working concentration of 1000× compound to 384-well assay plate with Echo. • 2. Plate Cells: 35 μl/well of HeLa/T-REx™ NICD CSL-bla cells at 10^3 cells/well complete medium into 384-well plate. • 3. Add 5 μl 8× Doxycycline in Assay Medium to the treated wells, and 5 μl Assay Medium to the Untreated and cell free control wells. • 4. Incubate the assay plate in a humidified 37° C./5% CO2 incubator for 16-20 hours. • 5. Preparation of 6× LiveBLAzer™-FRET B/G Substrate (CCF4-AM) Mixture according to the manual and cell loading should be done in the absence of direct strong lighting. • 6. Remove assay plate from the humidified 37° C./5% CO2 incubator. Add 8 μl of 6× Substrate Mixture from Step 5 to each well. Cover the plate to protect it from light and evaporation. Incubate at room temperature for 4 hours. • 7. Reading an Assay Plate using the following filter selections:
# • 8. Data analysis: Use the assay plate layout to identify the location of the Cell-free wells. These control wells are used for background subtraction. Determine the average emission from the Cell-free wells at both 460 nm (Average Blue Background) and 530 nm(Average Green Background). Subtract the Average Blue Background (data collected at 460 nm) from all of the blue emission data. Subtract the Average Green background (data collected at 530 nm) from all of the green emission data. Calculate the Blue/Green Emission Ratio for each well, by dividing the background-subtracted blue emission values by the background-subtracted green emission values.
# Instead of Step 1 to Step 3, the following Step a to Step d can also be performed. The subsequent steps are the same as Method 2, after Step 4 (Method 1). • a. Plate Cells: 32 μL/well of HeLa/T-REx™ NICD CSL-bla cells at 10^3 cells/well complete medium into 384-well plate. • b. Prepare 10× compounds in assay medium. • c. Add 4 μL compounds or 1% DMSO in assay medium to the cells. • d. Add 4 μL 10×Doxycycline in Assay Medium to the treated wells, and 4 μL Assay Medium to the Untreated and cell free control wells.
# The results are shown in Table 13 (Table 13-1 to Table 13-2).
# [1] = Method 2 (40 nL of 1000× compound added to plate with Echo)
# [2] = Method 1 (10× compound prepared in assay medium, added to plated cells)
Compound,inhibition at 10 µM [1] [%],inhibition at 10 µM [2] [%]
"NCCCC[C@H]1C(=O)N(CC2CCCCC2)CC2N(C(=O)OCC3CCCCC3)O[C@H](Cc3ccccc3)C(=O)N21 (stereo partly drawn) [Compound I-29, (3R,6S)-cyclohexylmethyl 6-(4-aminobutyl)-3-benzyl-8-(cyclohexylmethyl)-4,7-dioxohexahydropyrazino[2,1-c][1,2,4]oxadiazine-1(6H)-carboxylate]",101,–
"CC(C)C[C@H]1ON(C(=O)OCc2cccc3ccccc23)C2CN(C(C)C)C(=O)[C@H](Cc3ccc(O)cc3)N2C1=O (stereo partly drawn) [Compound I-14, (3R,6S)-naphthalen-1-ylmethyl 6-(4-hydroxybenzyl)-3-isobutyl-8-isopropyl-4,7-dioxohexahydropyrazino[2,1-c][1,2,4]oxadiazine-1(6H)-carboxylate]",–,64.8
"C[C@H]1ON(C(=O)OCCc2ccccc2)C2CN([C@@H](Cc3ccccc3)C(=O)NCCC(N)=O)C(=O)[C@H](Cc3ccccc3)N2C1=O (stereo partly drawn) [Compound I-85, phenethyl (3R,6S)-8-((S)-1-((3-amino-3-oxopropyl)amino)-1-oxo-3-phenylpropan-2-yl)-6-benzyl-3-methyl-4,7-dioxohexahydro-pyrazino[2,1-c] [1,2,4]oxadiazine-1(6H)-carboxylate]",66.5,–
"CC(C)C[C@H]1ON(C(=O)OCC2CCCCC2)C2CN(CCc3ccccc3)C(=O)[C@H](CCCCN)N2C1=O (stereo partly drawn) [Compound I-30, (3R,6S)-cyclohexylmethyl 6-(4-aminobutyl)-3-isobutyl-4,7-dioxo-8-phenethylhexahydropyrazino [2,1-c][1,2,4]oxadiazine-1(6H)-carboxylate]",117,–
"CC(C)CCN1CC2N(C(=O)OCc3cccc4ccccc34)O[C@@H](CC(N)=O)C(=O)N2[C@@H](CC2CCCCC2)C1=O (stereo partly drawn) [Compound I-27, (3S,6S)-naphthalen-1-ylmethyl 3-(2-amino-2-oxoethyl)-6-(cyclohexylmethyl)-8-isopentyl-4,7-dioxohexahydropyrazino[2,1-c][1,2,4]oxadiazine-1(6H)-carboxylate]",–,62.9
"CCCCCN1CC2N(C(=O)OCC(C)C)O[C@H](CC3CCCCC3)C(=O)N2[C@@H](CCCCN)C1=O (stereo partly drawn) [Compound I-34, (3R,6S)-isobutyl 6-(4-aminobutyl)-3-(cyclohexylmethyl)-4,7-dioxo-8-pentylhexahydropyrazino [2,1-c][1,2,4]oxadiazine-1(6H)-carboxylate]",120,–
"CCCCCOC(=O)N1O[C@H](Cc2ccccc2)C(=O)N2C1CN([C@@H](Cc1ccc(O)cc1)C(=O)NCCCC(C)C)C(=O)[C@@H]2Cc1ccc(O)cc1 (stereo partly drawn) [Compound I-111, pentyl (3R,6S)-3-benzyl-6-(4-hydroxybenzyl)-8-((S)-3-(4-hydroxyphenyl)-1-((4-methylpentyl)amino)-1-oxopropan-2-yl)-4,7-dioxohexahydropyrazino[2,1-c][1,2,4]oxadiazine-1(6H)-carboxylate]",53.9,–
"CC(C)C[C@H]1ON(C(=O)OCCc2ccccc2)C2CN([C@@H](Cc3ccccc3)C(=O)NCCCc3ccccc3)C(=O)[C@H](CCC(N)=O)N2C1=O (stereo partly drawn) [Compound I-123, phenethyl (3R,6S)-6-(3-amino-3-oxopropyl)-3-isobutyl-4,7-dioxo-8-((S)-1-oxo-3-phenyl-1-((3-phenylpropyl)amino)propan-2-yl)hexahydropyrazino[2,1-c][1,2,4]oxadiazine-1(6H)-carboxylate]",52.3,–
"CC(C)CCOC(=O)N1O[C@H](Cc2ccccc2)C(=O)N2C1CN([C@@H](Cc1ccccc1)C(=O)NCCc1ccccc1)C(=O)[C@@H]2Cc1ccc(O)cc1 (stereo partly drawn) [Compound I-105, isopentyl (3R,6S)-3-benzyl-6-(4-hydroxybenzyl)-4,7-dioxo-8-((S)-1-oxo-1-(phenethylamino)-3-phenylpropan-2-yl)hexahydropyrazino[2,1-c][1,2,4]oxadiazine-1(6H)-carboxylate]",60.9,–
"CCCCCOC(=O)N1O[C@H](CC(C)C)C(=O)N2C1CN([C@@H](Cc1ccccc1)C(=O)NCCC(C)C)C(=O)[C@@H]2Cc1ccc(O)cc1 (stereo partly drawn) [Compound I-92, pentyl (3R,6S)-6-(4-hydroxybenzyl)-3-isobutyl-8-((S)-1-(isopentylamino)-1-oxo-3-phenylpropan-2-yl)-4,7-dioxohexahydropyrazino[2,1-c][1,2,4]oxadiazine-1(6H)-carboxylate]",50.1,–
"CCCCOC(=O)N1O[C@H](CC2CCCCC2)C(=O)N2C1CN(CCC(C)C)C(=O)[C@@H]2CCCCN (stereo partly drawn) [Compound I-35, (3R,6S)-butyl 6-(4-aminobutyl)-3-(cyclohexylmethyl)-8-isopentyl-4,7-dioxohexahydropyrazino[2,1-c][1,2,4]oxadiazine-1(6H)-carboxylate]",54,–
"CC(C)CCOC(=O)N1O[C@H](Cc2ccccc2)C(=O)N2C1CN([C@@H](Cc1ccccc1)C(=O)NCCCO)C(=O)[C@@H]2Cc1ccc(O)cc1 (stereo partly drawn) [Compound I-106, isopentyl (3R,6S)-3-benzyl-6-(4-hydroxybenzyl)-8-((S)-1-((3-hydroxypropyl)amino)-1-oxo-3-phenylpropan-2-yl)-4,7-dioxohexahydropyrazino[2,1-c][1,2,4]oxadiazine-1(6H)-carboxylate]",52,–
"CC[C@H](C)OC(=O)N1O[C@H](Cc2ccccc2)C(=O)N2C1CN(CCc1cccc3ccccc13)C(=O)[C@@H]2CCCCN (stereo partly drawn) [Compound I-33, (3R,6S)-(S)-sec-butyl 6-(4-aminobutyl)-3-benzyl-8-(2-(naphthalen-1-yl)ethyl)-4,7-dioxohexahydropyrazino[2,1-c][1,2,4]oxadiazine-1(6H)-carboxylate]",59.6,–
"CC(C)C[C@H]1ON(C(=O)NCCC(c2ccccc2)c2ccccc2)C2CN(Cc3ccc4ccccc4c3)C(=O)[C@H](CCC(N)=O)N2C1=O (stereo partly drawn) [Compound I-55, (3R,6S)-6-(3-amino-3-oxopropyl)-N-(3,3-diphenylpropyl)-3-isobutyl-8-(naphthalen-2-ylmethyl)-4,7-dioxohexahydropyrazino[2,1-c][1,2,4]oxadiazine-1(6H)-carboxamide]",58.7,–
"CC(C)C[C@H]1ON(C(=O)OCCc2ccc(O)cc2)C2CN([C@@H](Cc3ccccc3)C(=O)NCCc3ccccc3)C(=O)[C@H](Cc3ccc(O)cc3)N2C1=O (stereo partly drawn) [Compound I-93, 4-hydroxyphenethyl (3R,6S)-6-(4-hydroxybenzyl)-3-isobutyl-4,7-dioxo-8-((S)-1-oxo-1-(phenethylamino)-3-phenylpropan-2-yl)hexahydropyrazino[2,1-c][1,2,4]oxadiazine-1(6H)-carboxylate]",76.3,–
"CC(C)CCNC(=O)[C@H](CC(C)C)N1CC2N(C(=O)OCCc3ccc(O)cc3)O[C@H](Cc3ccccc3)C(=O)N2[C@@H](C)C1=O (stereo partly drawn) [Compound I-120, 4-hydroxyphenethyl (3R,6S)-3-benzyl-8-((S)-1-(isopentylamino)-4-methyl-1-oxopentan-2-yl)-6-methyl-4,7-dioxohexahydropyrazino [2,1-c][1,2,4]oxadiazine-1(6H)-carboxylate]",67.1,–
"CC(C)C[C@H]1C(=O)N(C2CCN(C)CC2)CC2N(CCCc3ccccc3)O[C@H](CC3CCCCC3)C(=O)N21 (stereo partly drawn) [Compound I-141, (3R,6S)-3-(cyclohexylmethyl)-6-isobutyl-8-(1-methylpiperidin-4-yl)-1-(3-phenylpropyl) tetrahydropyrazino [2,1-c][1,2,4]oxadiazine-4,7(3H,6H)-dione]",83.1,–
"CC(C)CCOC(=O)N1O[C@H](C)C(=O)N2C1CN([C@@H](Cc1ccccc1)C(=O)NCCC(N)=O)C(=O)[C@@H]2Cc1ccccc1 (stereo partly drawn) [Compound I-84, isopentyl (3R,6S)-8-((S)-1-((3-amino-3-oxopropyl)amino)-1-oxo-3-phenylpropan-2-yl)-6-benzyl-3-methyl-4,7-dioxohexahydro-pyrazino[2,1-c] [1,2,4]oxadiazine-1(6H)-carboxylate]",78.4,–
"CC(C)CCCNC(=O)[C@H](CC(C)C)N1CC2N(C(=O)OCCc3ccc(O)cc3)O[C@H](Cc3ccccc3)C(=O)N2[C@@H](Cc2ccc(O)cc2)C1=O (stereo partly drawn) [Compound I-104, 4-hydroxyphenethyl (3R,6S)-3-benzyl-6-(4-hydroxybenzyl)-8-((S)-4-methyl-1-((4-methylpentyl)amino)-1-oxopentan-2-yl)-4,7-dioxohexahydropyrazino[2,1-c][1,2,4]oxadiazine-1(6H)-carboxylate]",70.2,–
